{"source": "patent US9345711B2", "about": "“Methods for acute and long-term treatment of drug addiction” (DemeRx, Inc., priority 2014, dated 2016)", "key": {"[1]": {"assay": "Pharmacokinetics of noribogaine in healthy volunteers after single oral dose (plasma, LCMSMS)"}, "[2]": {"assay": "Safety and tolerability of noribogaine in healthy volunteers (adverse events, vital signs, ECG)", "format": "in vivo, human", "protocol": "(§1) Pulse oximetry and capnography data were collected continuously using a GE Carescape B650 monitoring system from 2 hours prior to dosing and until six hours after dosing, and thereafter at 12, 24, 48 and 72 hours post-dosing. […] Pupillary miosis was assessed by pupillometry.\n(§2) Safety and tolerability of noribogaine were tested in the group of volunteers from Example 1. […] Safety evaluations included clinical monitoring, recording of adverse events (AEs), safety laboratory tests, vital signs, ECG telemetry from −2 h to 6 h after dosing, and 12-lead electrocardiograms (ECGs) up to 216 hours post-dosing."}, "[3]": {"assay": "Efficacy of noribogaine in opioid-dependent participants: time to resumption of opioid substitution treatment", "format": "in vivo, human", "details": "for average time to resumption of opioids: single oral dose", "protocol": "(§3) The efficacy of noribogaine in humans was evaluated in opioid-dependent participants in a randomized, placebo-controlled, double-blind trial. […] See U.S. Provisional Application Ser. No. 61/852,485, filed Mar. 15, 2013, which is incorporated herein by reference in its entirety.\n(§4) In the first cohort, six patients were orally administered a single dose of 60 mg noribogaine, and three patients received placebo. In the second cohort, five patients were orally administered a single dose of 120 mg noribogaine, and three patients received placebo.\nFIG. 3 indicates the serum noribogaine concentration over time. Serum concentrations for 120 mg dose (black squares) are estimated based on data from the 60 mg dose (gray diamonds)."}, "[4]": {"assay": "Safety and QT interval in opioid-dependent participants", "format": "in vivo, human", "details": "for Mean prolongation of the QT interval: opioid-dependent patients", "protocol": "as §3, §4"}, "[5]": {"assay": "Cold pressor test (analgesic effect) in healthy volunteers", "format": "in vivo, human", "protocol": "Analgesic effect was assessed based on duration of hand immersion in ice water and on visual analog scale (VAS) pain scores upon hand removal from the water bath.\nas §2"}, "[6]": {"assay": "Pupillometry (pupillary miosis) in healthy volunteers", "format": "in vivo, human", "protocol": "as §1"}, "[7]": {"details": "plasma glucuronide after single oral 30 mg noribogaine, healthy volunteers, mean (SD), n = 6"}, "[8]": {"details": "plasma glucuronide after single oral 60 mg noribogaine, healthy volunteers, mean (SD), n = 6"}, "[9]": {"details": "across dose groups (3-60 mg), healthy volunteers"}, "[10]": {"details": "3 mg dose group, healthy volunteers"}, "[11]": {"details": "opioid-dependent participants, single oral 60 mg or 120 mg"}, "[12]": {"details": "after adjusting for baseline differences, p>0.9"}}, "note": "“Also recorded” adds a separate entry of the source.", "data": [{"smiles": "CC[C@H]1C[C@@H]2C[C@H]3c4[nH]c5ccc(OC6OC(C(=O)O)C(O)C(O)C6O)cc5c4CCN(C2)[C@@H]13", "note": "(stereo partly drawn) [Noribogaine glucuronide]", "values": [{"measurement": "AUC0-216 of noribogaine glucuronide", "setting": "[1]; [7]", "value": "25.7 (9.1) ng · hr/ml"}, {"measurement": "AUC0-∞ of noribogaine glucuronide", "setting": "[1]; [7]", "value": "25.8 (9.3) ng · hr/ml"}, {"measurement": "Cmax of noribogaine glucuronide", "setting": "[1]; [7]", "value": "1.8 (0.6) ng/ml"}, {"measurement": "Tmax of noribogaine glucuronide", "setting": "[1]; [7]", "value": "3.0 (0.6) hr"}, {"measurement": "t1/2 of noribogaine glucuronide", "setting": "[1]; [7]", "value": "20.6 (4.9) hr"}, {"measurement": "AUC0-216 of noribogaine glucuronide", "setting": "[1]; [8]", "value": "65.0 (21.5) ng · hr/ml"}, {"measurement": "AUC0-∞ of noribogaine glucuronide", "setting": "[1]; [8]", "value": "67.1 (21.9) ng · hr/ml"}, {"measurement": "Cmax of noribogaine glucuronide", "setting": "[1]; [8]", "value": "4.1 (1.2) ng/ml"}, {"measurement": "Tmax of noribogaine glucuronide", "setting": "[1]; [8]", "value": "3.8 (1.2) hr"}, {"measurement": "t1/2 of noribogaine glucuronide", "setting": "[1]; [8]", "value": "23.1 (3.0) hr"}, {"measurement": "time of peak glucuronide concentrations after noribogaine dosing", "setting": "[1]; plasma, 30 mg and 60 mg noribogaine dose groups", "value": "3 to 4", "unit": "h"}]}, {"smiles": "CC[C@H]1CC2C[C@H]3c4[nH]c5ccc(O)cc5c4CCN(C2)C13", "note": "[Noribogaine]", "values": [{"measurement": "dose-proportionality of Cmax and AUC", "setting": "[1]; 3-60 mg single oral doses, linear regression", "value": "increased linearly with dose"}, {"measurement": "Mean half-life estimates", "setting": "[1]; [9]", "value": "28 to 50", "unit": "h"}, {"measurement": "Volume of distribution", "setting": "[1]; [9]", "value": "1417 to 3086", "unit": "L"}, {"measurement": "CL/F", "setting": "[1]; healthy male volunteers, single oral 3 mg noribogaine, mean (SD), n = 6", "value": "41.4 (7.0) L/h"}, {"measurement": "CL/F", "setting": "[1]; healthy male volunteers, single oral 10 mg noribogaine, mean (SD), n = 6", "value": "42.3 (12.0) L/h"}, {"measurement": "CL/F", "setting": "[1]; healthy male volunteers, single oral 30 mg noribogaine, mean (SD), n = 6", "value": "46.9 (16.4) L/h"}, {"measurement": "Tmax", "setting": "[1]; healthy male volunteers, single oral 30 mg noribogaine, plasma, mean (SD), n = 6", "value": "1.8 (0.6) hr"}, {"measurement": "CL/F", "setting": "[1]; healthy male volunteers, single oral 60 mg noribogaine, mean (SD), n = 6", "value": "34.0 (11.4) L/h"}, {"measurement": "time of peak concentrations after oral dosing", "setting": "[1]; healthy volunteers, 3-60 mg dose groups", "value": "2 to 3", "unit": "h"}, {"measurement": "adverse events, Mild", "setting": "[2]; [10]", "value": "Dizziness; also recorded: Epistaxis; also recorded: Headache; also recorded: Back pain"}, {"measurement": "adverse events, Moderate", "setting": "[2]; [10]", "value": "Headache"}, {"measurement": "number of adverse events reported", "setting": "[2]; 3 mg dose group, two subjects", "value": "five adverse events"}, {"measurement": "adverse events, Mild", "setting": "[2]; 10 mg dose group, healthy volunteers", "value": "Headache"}, {"measurement": "number of adverse events reported", "setting": "[2]; 10 mg dose group, single subject", "value": "one adverse event"}, {"measurement": "adverse events, Mild", "setting": "[2]; 30 mg dose group, healthy volunteers", "value": "Headache"}, {"measurement": "number of adverse events reported", "setting": "[2]; 30 mg dose group, single subject", "value": "one adverse event"}, {"measurement": "intensity of adverse events", "setting": "[2]; all dose groups, all resolved prior to study completion", "value": "mild-moderate intensity"}, {"measurement": "changes in oximetry, capnography or respiratory rate", "setting": "[2]; healthy volunteers, 3-60 mg", "value": "no changes in oximetry or capnography, or changes in respiratory rate"}, {"measurement": "changes in vital signs or safety laboratory tests", "setting": "[2]; healthy volunteers, 3-60 mg", "value": "no changes in vital signs or safety laboratory tests of note"}, {"measurement": "average time to resumption of opioids", "setting": "[3]; first cohort, blinded: 60 mg noribogaine (6 patients) or placebo (3 patients)", "value": "approximately 8.7 hours"}, {"measurement": "time to resumption of opioids longer than reported for untreated patients in a similar study", "setting": "[3]; first cohort, blinded: 60 mg noribogaine or placebo", "value": "~2", "unit": "h"}, {"measurement": "average time to resumption of OST", "setting": "[3]; five presumed noribogaine-treated patients of second cohort (imputed, 120 mg), placebo construed from no QT prolongation", "value": "approximately 26.8 hours"}, {"measurement": "impact on withdrawal symptoms in addicted patients", "setting": "[3]; lower dosing of noribogaine, human clinical studies (summary statement)", "value": "minimal impact on withdrawal symptoms"}, {"measurement": "average time to resumption of opioids", "setting": "[3]; second cohort, blinded: 120 mg noribogaine (5 patients) or placebo (3 patients)", "value": "approximately 23 hours"}, {"measurement": "Mean prolongation of the QT interval", "setting": "[4]; first cohort (60 mg noribogaine or placebo)", "value": "less than 10 ms"}, {"measurement": "adverse effects", "setting": "[4]; [11]", "value": "No adverse effects"}, {"measurement": "hallucinatory effects", "setting": "[4]; [11]", "value": "no hallucinatory effects"}, {"measurement": "Mean prolongation of the QT interval", "setting": "[4]; second cohort (120 mg noribogaine or placebo)", "value": "less than 40 ms"}, {"measurement": "prolongation of the treated patient's QT interval", "setting": "[4]; summary statement, increases in opioid addicted patients compared to healthy individuals", "value": "dose dependent prolongation"}, {"measurement": "VAS pain scores, each dose group vs placebo (ANOVA)", "setting": "[5]; after adjusting for baseline differences, p=0.17", "value": "no statistically significant differences"}, {"measurement": "duration of hand immersion, each dose group vs placebo (ANOVA)", "setting": "[5]; [12]", "value": "no statistically significant differences"}, {"measurement": "analgesic effect in the cold pressor test", "setting": "[5]; healthy volunteers, 3-60 mg single oral dose, 1° C. water", "value": "no analgesic effect"}, {"measurement": "pupil diameter, each dose group vs placebo (ANOVA)", "setting": "[6]; [12]", "value": "no statistically significant differences"}, {"measurement": "pupillary constriction", "setting": "[6]; healthy volunteers, 3-60 mg single oral dose", "value": "no evidence of pupillary constriction"}]}]}
